Starred links: 1 amine or outer side, 2 acyl side, 3 side chain; linkers in the order of their positions; H or OH if unused. Positions of bridges follow the written chain, without caps; N, C: chain ends. Residues, ends and D or L forms follow the SMILES beside them. Suc = O=C(CCC(=O)[*:2])[*:1]

Drawing on US20220340629A1, “Myosin Derived Peptides and Related Compounds with Anticoagulant Activities” (THE SCRIPPS RESEARCH INSTITUTE, priority 0001, published 2022), this text covers IC50 for six molecules.

The subject of the experiment is thrombin generation in human platelet poor plasma with skeletal muscle myosin. Nature of the experiment: Assay 2A: thrombin generation, recalcification of human platelet poor plasma + myosin. It counts as biochemical. Particulars: human platelet poor plasma 30%, myosin 50 nM, CaCl2 10 mmol/L; read-out: 2A (recalcification +myosin). The protocol:
Activities of the various peptides and derivative compounds were also examined via assays using recalcification of human plasma. [One of] these assay format (2A) involves monitoring thrombin generation in platelet poor plasma (PPP). Specifically, pooled normal human platelet poor plasma (PPP) (obtained from George King Bio Medical Inc., Overland Park, Kans.) (30%) was incubated with skeletal muscle myosin at 50 nM in the presence of peptide in DMSO or DMSO alone for 5 min at 37° C. Then, fluorogenic thrombin substrate solution (Z-Gly-Gly-Arg-AMC) (I-1140) with CaCl2 (10 mmol/L final) alone was added to the reaction mixture (total 110 μl) to initiate coagulation. Thrombin generation was followed continuously for 25 min using SPECTRAmax GEMINI XS fluorometer (Molecular Devices, Sunnyvale, Calif.) with excitation and emission wavelengths set at 360 and 460 nm, respectively. The first derivative of fluorescence versus time was used to produce thrombin generation curves with the correction for substrate consumption and inner filter effect. For this assay 96 well plate (total 110 μL) or 384 well plates (total 30 μL) were used.
Activities obtained from Assay 2A (recalcification of human plasma in the presence of myosin) were used to rank the various peptides listed in Table 3. As noted above, this assay monitors recalcification of plasma to stimulate thrombin generation. In this assay, potency of the compounds was determined as the peptide concentration for 50% inhibition of thrombin generation, defined as “IC50”.
`CC[C@H](C)[C@H](NC(=O)[C@H](C)NC(=O)[C@H](CCC(=O)O)NC(=O)[C@H](CCCNC(=N)N)NC(=O)[C@H](CCCNC(=N)N)NC(=O)[C@@H]1CCCCNC(=O)CCC(=O)NCCCC[C@@H]2NC(=O)[C@@H](NC(=O)[C@H](C)NC(=O)[C@H](CC(C)C)NC(=O)[C@H](Cc3ccccc3)NC(=O)CNC(=O)[C@H](CCCNC(=N)N)NC(=O)[C@H](CS)NC(=O)[C@H](CCCNC(=N)N)NC(=O)[C@H](C)N)CCCCNC(=O)CCC(=O)NCCCC[C@H](NC(=O)[C@H](CCSC)NC(=O)[C@H](CCCNC(=N)N)NC(=O)[C@H](CCC(N)=O)NC(=O)[C@H](Cc3ccc(O)cc3)NC(=O)[C@H](CCC(=O)O)NC2=O)C(=O)N1)C(=O)N[C@@H](Cc1ccccc1)C(=O)N[C@@H](CS)C(=O)N[C@H](C(=O)N[C@@H](CCC(N)=O)C(=O)N[C@@H](Cc1ccc(O)cc1)C(=O)N[C@@H](CC(N)=O)C(=O)N[C@H](C(=O)N[C@@H](CCCNC(=N)N)C(=O)N[C@@H](CO)C(=O)N[C@@H](Cc1ccccc1)C(=O)N[C@@H](CCSC)C(=O)N[C@@H](CC(N)=O)C(=O)N[C@H](C(=O)N[C@@H](CCCCN)C(=O)N[C@@H](Cc1c[nH]cn1)C(=O)N[C@@H](Cc1c[nH]c2ccccc12)C(=O)N1CCC[C@H]1C(=O)N[C@@H](Cc1c[nH]c2ccccc12)C(N)=O)C(C)C)[C@@H](C)CC)[C@@H](C)CC` [HC156] (H-ARCRGFLAKKEYQRMKKRREAIFCIQYNIRSFMNVKHWPW-NH2; linker 9-16, 10-17 via Suc (inferred); N-terminus and C-terminus assumed): the IC50 was 9.3 µM. The figure for `CC[C@H](C)[C@H](NC(=O)[C@H](C)NC(=O)[C@@H]1CCCCNC(=O)CCC(=O)NCCCC[C@@H]2NC(=O)[C@H](Cc3ccc(O)cc3)NC(=O)[C@H](CCC(=O)O)NC(=O)[C@H](C(C)C)NC(=O)[C@@H](NC(=O)[C@H](C)NC(=O)[C@H](CC(C)C)NC(=O)[C@H](Cc3ccccc3)NC(=O)CNC(=O)[C@H](CCCNC(=N)N)NC(=O)[C@H](CS)NC(=O)[C@H](CCCNC(=N)N)NC(=O)[C@H](C)N)CCCCNC(=O)CCC(=O)NCCCC[C@H](NC(=O)[C@H](CCSC)NC(=O)[C@H](CCCNC(=N)N)NC2=O)C(=O)N[C@@H](CCC(=O)O)C(=O)N[C@@H](CCCNC(=N)N)C(=O)N[C@@H](CCCNC(=N)N)C(=O)N1)C(=O)N[C@@H](Cc1ccccc1)C(=O)N[C@@H](CS)C(=O)N[C@H](C(=O)N[C@@H](CCC(N)=O)C(=O)N[C@@H](Cc1ccc(O)cc1)C(=O)N[C@@H](CC(N)=O)C(=O)N[C@H](C(=O)N[C@@H](CCCNC(=N)N)C(=O)N[C@@H](CO)C(=O)N[C@@H](Cc1ccccc1)C(=O)N[C@@H](CCSC)C(=O)N[C@@H](CC(N)=O)C(=O)N[C@H](C(=O)N[C@@H](CCCCN)C(=O)N[C@@H](Cc1c[nH]cn1)C(=O)N[C@@H](Cc1c[nH]c2ccccc12)C(=O)N1CCC[C@H]1C(=O)N[C@@H](Cc1c[nH]c2ccccc12)C(N)=O)C(C)C)[C@@H](C)CC)[C@@H](C)CC` [HC158] (H-ARCRGFLAKVEYKRMKERRKAIFCIQYNIRSFMNVKHWPW-NH2; linker 9-16, 13-20 via Suc (inferred); N-terminus and C-terminus assumed) is 5.8 µM; for `CC[C@H](C)[C@@H]1NC(=O)[C@H](C)NC(=O)[C@@H](NC(=O)[C@H](CCCNC(=N)N)NC(=O)[C@H](CCCNC(=N)N)NC(=O)[C@H](CCC(=O)O)NC(=O)[C@@H]2CCCCNC(=O)CCC(=O)NCCCC[C@H](NC(=O)[C@H](C)NC(=O)[C@H](CC(C)C)NC(=O)[C@H](Cc3ccccc3)NC(=O)CNC(=O)[C@H](CCCNC(=N)N)NC(=O)[C@H](CS)NC(=O)[C@H](CCCNC(=N)N)NC(=O)[C@H](C)N)C(=O)N[C@@H](C(C)C)C(=O)N[C@@H](CCC(=O)O)C(=O)N[C@@H](Cc3ccc(O)cc3)C(=O)N[C@@H](CCC(N)=O)C(=O)N[C@@H](CCCNC(=N)N)C(=O)N[C@@H](CCSC)C(=O)N2)CCCCNC(=O)CCC(=O)NCCCC[C@@H](C(=O)N[C@@H](CC(N)=O)C(=O)N[C@H](C(=O)N[C@@H](CCCNC(=N)N)C(=O)N[C@@H](CO)C(=O)N[C@@H](Cc2ccccc2)C(=O)N[C@@H](CCSC)C(=O)N[C@@H](CC(N)=O)C(=O)N[C@H](C(=O)N[C@@H](CCCCN)C(=O)N[C@@H](Cc2c[nH]cn2)C(=O)N[C@@H](Cc2c[nH]c3ccccc23)C(=O)N2CCC[C@H]2C(=O)N[C@@H](Cc2c[nH]c3ccccc23)C(N)=O)C(C)C)[C@@H](C)CC)NC(=O)[C@H](CCC(N)=O)NC(=O)[C@H]([C@@H](C)CC)NC(=O)[C@H](CS)NC(=O)[C@H](Cc2ccccc2)NC1=O` [HC159] (H-ARCRGFLAKVEYQRMKERRKAIFCIQKNIRSFMNVKHWPW-NH2; linker 9-16, 20-27 via Suc (inferred); N-terminus and C-terminus assumed) it is 13.3 µM; for `CC[C@H](C)[C@H](NC(=O)[C@H](C)NC(=O)[C@H](CCC(=O)O)NC(=O)[C@H](CCCNC(=N)N)NC(=O)[C@H](CCCNC(=N)N)NC(=O)[C@H](CCC(=O)O)NC(=O)[C@@H]1CCCCNC(=O)CCC(=O)NCCCC[C@H](NC(=O)[C@H](C)NC(=O)[C@H](CC(C)C)NC(=O)[C@H](Cc2ccccc2)NC(=O)CNC(=O)[C@H](CCCNC(=N)N)NC(=O)[C@H](CS)NC(=O)[C@H](CCCNC(=N)N)NC(=O)[C@H](C)N)C(=O)N[C@@H](C(C)C)C(=O)N[C@@H](CCC(=O)O)C(=O)N[C@@H](Cc2ccc(O)cc2)C(=O)N[C@@H](CCC(N)=O)C(=O)N[C@@H](CCCNC(=N)N)C(=O)N[C@@H](CCSC)C(=O)N1)C(=O)N[C@@H](Cc1ccccc1)C(=O)N[C@H]1CCCCNC(=O)CCC(=O)NCCCC[C@@H](C(=O)N[C@@H](Cc2ccccc2)C(=O)N[C@@H](CCSC)C(=O)N[C@@H](CC(N)=O)C(=O)N[C@H](C(=O)N[C@@H](CCCCN)C(=O)N[C@@H](Cc2c[nH]cn2)C(=O)N[C@@H](Cc2c[nH]c3ccccc23)C(=O)N2CCC[C@H]2C(=O)N[C@@H](Cc2c[nH]c3ccccc23)C(N)=O)C(C)C)NC(=O)[C@H](CCCNC(=N)N)NC(=O)[C@H]([C@@H](C)CC)NC(=O)[C@H](CC(N)=O)NC(=O)[C@H](Cc2ccc(O)cc2)NC(=O)[C@H](CCC(N)=O)NC(=O)[C@H]([C@@H](C)CC)NC1=O` [HC160] (H-ARCRGFLAKVEYQRMKERREAIFKIQYNIRKFMNVKHWPW-NH2; linker 9-16, 24-31 via Suc (inferred); N-terminus and C-terminus assumed) it is 3.4 µM.

Take `CC[C@H](C)[C@H](NC(=O)[C@H](C)NC(=O)[C@H](CCC(=O)O)NC(=O)[C@H](CCCNC(=N)N)NC(=O)[C@H](CCCNC(=N)N)NC(=O)[C@H](CCC(=O)O)NC(=O)[C@@H]1CCCCNC(=O)CCC(=O)NCCCC[C@@H]2NC(=O)[C@H](C)NC(=O)[C@H](CC(C)C)NC(=O)[C@H](Cc3ccccc3)NC(=O)CNC(=O)[C@H](CCCNC(=N)N)NC(=O)[C@@H](NC(=O)[C@H](CCCNC(=N)N)NC(=O)[C@H](C)N)CCCCNC(=O)CCC(=O)NCCCC[C@H](NC2=O)C(=O)N[C@@H](CCC(=O)O)C(=O)N[C@@H](Cc2ccc(O)cc2)C(=O)N[C@@H](CCC(N)=O)C(=O)N[C@@H](CCCNC(=N)N)C(=O)N[C@@H](CCSC)C(=O)N1)C(=O)N[C@@H](Cc1ccccc1)C(=O)N[C@@H](CS)C(=O)N[C@H](C(=O)N[C@@H](CCC(N)=O)C(=O)N[C@@H](Cc1ccc(O)cc1)C(=O)N[C@@H](CC(N)=O)C(=O)N[C@H](C(=O)N[C@@H](CCCNC(=N)N)C(=O)N[C@@H](CO)C(=O)N[C@@H](Cc1ccccc1)C(=O)N[C@@H](CCSC)C(=O)N[C@@H](CC(N)=O)C(=O)N[C@H](C(=O)N[C@@H](CCCCN)C(=O)N[C@@H](Cc1c[nH]cn1)C(=O)N[C@@H](Cc1c[nH]c2ccccc12)C(=O)N1CCC[C@H]1C(=O)N[C@@H](Cc1c[nH]c2ccccc12)C(N)=O)C(C)C)[C@@H](C)CC)[C@@H](C)CC` [HC153] (H-ARKRGFLAKKEYQRMKERREAIFCIQYNIRSFMNVKHWPW-NH2; linker 3-10, 9-16 via Suc (inferred); N-terminus and C-terminus assumed): the IC50 was 11 µM. Under `CC[C@H](C)[C@H](NC(=O)[C@H](C)NC(=O)[C@H](CCC(=O)O)NC(=O)[C@H](CCCNC(=N)N)NC(=O)[C@H](CCCNC(=N)N)NC(=O)[C@H](CCC(=O)O)NC(=O)[C@@H]1CCCCNC(=O)CCC(=O)NCCCC[C@@H]2NC(=O)[C@H](C)NC(=O)[C@H](CC(C)C)NC(=O)[C@@H](NC(=O)CNC(=O)[C@H](CCCNC(=N)N)NC(=O)[C@H](CS)NC(=O)[C@H](CCCNC(=N)N)NC(=O)[C@H](C)N)CCCCNC(=O)CCC(=O)NCCCC[C@H](NC(=O)[C@H](Cc3ccc(O)cc3)NC(=O)[C@H](CCC(=O)O)NC(=O)[C@H](C(C)C)NC2=O)C(=O)N[C@@H](CCCNC(=N)N)C(=O)N[C@@H](CCSC)C(=O)N1)C(=O)N[C@@H](Cc1ccccc1)C(=O)N[C@@H](CS)C(=O)N[C@H](C(=O)N[C@@H](CCC(N)=O)C(=O)N[C@@H](Cc1ccc(O)cc1)C(=O)N[C@@H](CC(N)=O)C(=O)N[C@H](C(=O)N[C@@H](CCCNC(=N)N)C(=O)N[C@@H](CO)C(=O)N[C@@H](Cc1ccccc1)C(=O)N[C@@H](CCSC)C(=O)N[C@@H](CC(N)=O)C(=O)N[C@H](C(=O)N[C@@H](CCCCN)C(=O)N[C@@H](Cc1c[nH]cn1)C(=O)N[C@@H](Cc1c[nH]c2ccccc12)C(=O)N1CCC[C@H]1C(=O)N[C@@H](Cc1c[nH]c2ccccc12)C(N)=O)C(C)C)[C@@H](C)CC)[C@@H](C)CC` [HC155] (H-ARCRGKLAKVEYKRMKERREAIFCIQYNIRSFMNVKHWPW-NH2; linker 6-13, 9-16 via Suc (inferred); N-terminus and C-terminus assumed) stands 9.5 µM.
